According to US4369120A, “Refrigeration liquid with leak indicator and process of using same” (priority 1981, dated 1983):

How the values were obtained:
[1] = Sealed tube test of stability of dyes in refrigerant/refrigeration oil with metal coupons; assay type: physicochemical; conditions: for Stability, Mean Life: Table I, sealed tube data in R-12 at 350° F.; for stability as measured by the sealed tube test: text summary of Table I; for stability as measured by the sealed tube test / stability in the sealed tube test (in words): 350° F.; for stability in the sealed tube test (in words): Table I dyes
Method: By reference to Table I below it can be appreciated that such ortho substitution has a remarkably beneficial effect on the stability of the dyes in the accelerated sealed tube test used for evaluation. The first three dyes listed, embodying the principles of this invention, routinely withstand in excess of twenty days in the sealed tube test at 350° F. (176.7° C.), equivalent to many years of normal use in a refrigeration system.
The sealed tube test serves as a method of evaluating in an accelerated manner interactions of materials found in a refrigeration system.
Glass tubes and all metal test coupons are scrupulously cleaned. Test refrigerants are distilled to minimize moisture contamination. Moisture is removed from the refrigeration test oil "Suniso" 3GS by subjecting the oil to a vacuum with slight stirring and heating. Ratios of refrigerant/refrigerant oil range from 1:1 to 1:2 by weight.
Refrigerant oil and representative metal coupons of copper #10AWG wire, Swedish valve stock steel, and aluminum metal sheet are placed in a glass tube along with the subject test dye material (0.25-1.0% wt/wt) dissolved in the refrigerant oil. Like samples without the subject dye are analyzed as controls.
The tube and its contents are chilled in a liquid nitrogen bath while the refrigerant is condensed into the tube via a calibrated manometer. The tube is sealed under a vacuum of at least 0.1 torr.
Glass tubes and contents are subjected to uniform heating in a bored aluminum block placed in a temperature-programmed oven.
The oven temperatures used vary according to the test refrigerant, as indicated:
The test is run for one of the following time periods: 5, 14, 21, 30 or 60 days.
The tube contents may be evaluated by several methods:
of these methods, the visual examination is the most rapid and the only qualitative method. Any color change in the subject dye coloration is noted when compared to a control sample.
The quantitative methods involve analysis for decomposition products of chloride as hydrochloric acid or organic products by gas chromatography, infrared spectroscopy, or mass spectroscopy. However, visual inspection and gas chromatography are widely used, and they were selected as standardization procedures for evaluation of sealed tube contents.
R-12 is chemically one of the more reactive refrigerants; thus, short term tests with refrigeration liquids containing this refrigerant admixed with a mineral oil yield the most rapid results. R-22 and R-502 are also used but the decomposition products are more difficult to analyze by gas chromatography. Ultimately the test material must pass interactions involving any of these refrigerants. The visual method can be used empirically on a pass-fail basis. As verified experimentally, visual results are considered as valid as instrumental methods.

[2] = Solubility of dyes in refrigeration oils; conditions: for Oil Sol. In 3GS: Table I, Suniso 3GS refrigeration oil
Method: Manufacturers of refrigeration equipment generally demand that any refrigeration liquid satisfactorily pass such a sealed tube test before they approve the liquid for use in their equipment. In addition, the solubility of the various dyes in oil and in refrigerant were determined.
Solubility of various dyes in various refrigeration oils was carefully determined according to the following standardized procedure. An excess of the subject dye was added to a given weight (e.g., 100 g) of refrigerant oil. The mixture was stirred for one-half hour with mild heating, whereupon it was cooled to room temperature (about 21° C.) and transferred to a centrifuge tube. The mixture was centrifuged approximately 15 minutes at 1000 rpm. A sample of the supernatant liquid was decanted (1.00 g±0.01 g) and diluted to 100 ml volume with methylene chloride. Aliquot portions were taken and read against the principal absorption peaks by visible light spectroscopy. Wt/wt percentage concentrations were then calculated from proper standard curves.

[3] = Solubility of dyes in halocarbon refrigerants; assay type: physicochemical; conditions: for Refr. Sol. In R-12: Table I, refrigerant R-12
Method: Solubilities of various dyes in various halocarbon refrigerants were also determined according to the following standardized procedure. […] The R-11 was allowed to vaporize, leaving a known amount of dye in the bottom portion of the test tube. The tube was then attached to a charging apparatus containing a supply of a given halocarbon refrigerant and various amounts of the refrigerant were charged into the tube while chilling the latter by immersion in liquid nitrogen. The tube containing the dye/refrigerant mixture was sealed under vacuum, allowed to reach room temperature (about 21° C.) and rotated for several hours. Visual inspection of the tube was made at several temperatures to note the degree of dissolution. The procedure was improved over previously used methods in that an exact predetermined amount of dye and refrigerant were made to interact, requiring fewer weighings. Finally, it became possible to use the same tube to check solubility at several different temperatures.

Row | SMILES | Stability, Mean Life [1] [days] | Oil Sol. In 3GS [2] [%] | stability in the sealed tube test (in words) [1] | further results
1 | O=C1c2ccccc2C(=O)c2c(Nc3ccc(C4CCCCC4)cc3)ccc(Nc3ccc(C4CCCCC4)cc3)c21 [Dye No. 5-5, 1,4-Bis(4-cyclohexylanilino)] | 9.7 | 0.1 | – | –
2 | Cc1cc(C)c(Nc2ccc(Nc3c(C)cc(C)cc3C)c3c2C(=O)c2ccccc2C3=O)c(C)c1 [Dye No. 3-25, 1,4-Bis(mesidino)anthraquinone] | 24.3 | 0.55 | – | stability as measured by the sealed tube test [1]: > 20 days; solubility in the refrigeration oil (in words) [2]: relatively high solubility; solubility in the halocarbon refrigerant (in words) [3]: sufficient solubility; Refr. Sol. In R-12 [3]: < 0.1%
3 | CCCCc1ccc(Nc2cc(C)c(Nc3ccc(CCCC)cc3)c3c2C(=O)c2ccccc2C3=O)cc1 [Dye No. 22-16, 1,4-Bis(4-n-butylanilino)-2-methyl] | 3.0 | 1.0 | very unstable | –
4 | CCCCc1ccc(N(C)c2ccc(N(C)c3ccc(CCCC)cc3)c3c2C(=O)c2ccccc2C3=O)cc1 [Dye No. 18-6, 1,4-Bis(N-methyl-4-n-butylanilino)anthraquinone] | 4.3 | 0.1 | very unstable | –
5 | CCCCc1ccc(Nc2ccc(Nc3ccc(C)cc3)c3c2C(=O)c2ccccc2C3=O)cc1 [Dye No. 21-11, 1-(4-n-butylanilino)-4-(p-toluidino)] | 7.7 | 0.1 | – | –
6 | Cc1cccc(C)c1Nc1ccc(Nc2c(C)cccc2C)c2c1C(=O)c1ccccc1C2=O [Dye No. 2-31, 1,4-Bis(2,6-dimethylanilino)-anthraquinone] | 22.4 | 0.1 | – | stability as measured by the sealed tube test [1]: > 20 days; solubility in the refrigeration oil (in words) [2]: relatively high solubility; solubility in the halocarbon refrigerant (in words) [3]: sufficient solubility; Solubility in refrigerant ([3]; R-12, 21° C.): < 0.02 %(wt/wt); Solubility in refrigerant ([3]; R-22, 21° C.): 0.04 %(wt/wt); Solubility in refrigerant ([3]; R-502, 21° C.): < 0.02 %(wt/wt); Refr. Sol. In R-12 [3]: < 0.1%
7 | O=C1c2ccccc2C(=O)c2c(Nc3ccccc3C(F)(F)F)ccc(Nc3ccccc3C(F)(F)F)c21 [Dye No. 23-24, 1,4-Bis(2-trifluoro-methylanilino)] | 6.5 | 0.5 | very unstable | –
8 | O=C1c2ccccc2C(=O)c2c(NC(c3ccccc3)c3ccccc3)ccc(NC(c3ccccc3)c3ccccc3)c21 [Dye No. 12-20, 1,4-Bis(diphenylmethylamino)] | 2.0 | < 0.05 | – | –
9 | CCCCCCCCCCCCNc1ccc(NCCCCCCCCCCCC)c2c1C(=O)c1ccccc1C2=O [Dye No. 14-32, 1,4-Bis(n-dodecylamino)] | 2.3 | 0.5 | – | –
10 | CCCCCCCCNc1ccc(NCCCCCCCC)c2c1C(=O)c1ccccc1C2=O [Dye No. 13-27, 1,4-Bis(n-octylamino)] | 4.4 | 0.5 | – | –
11 | CC(Nc1ccc(NC(C)c2ccccc2)c2c1C(=O)c1ccccc1C2=O)c1ccccc1 (stereo not drawn) [Dye No. 11-17, 1,4-Bis(α-methylbenzylamino)] | 3.5 | 1.0 | – | –
12 | CCCCOc1ccc(Nc2ccc(Nc3ccc(OCCCC)cc3)c3c2C(=O)c2ccccc2C3=O)cc1 [Dye No. 8-2, 1,4-Bis(4-n-butoxyanilino)] | 8.6 | 0.02 | – | –
13 | CC(C)(C)CNc1ccc(NCC(C)(C)C)c2c1C(=O)c1ccccc1C2=O [Dye No. 15-13, 1,4-Bis(neopentylamino)] | 3.4 | < 1.0 | very unstable | –
14 | CCCCc1ccc(Nc2ccc(Nc3ccc(CCCC)cc3)c3c2C(=O)c2ccccc2C3=O)cc1 [Dye No. 4-1, 1,4-Bis(4-n-butylanilino)] | 9.5 | < 1.0 | – | –
15 | CC(C)(C)c1ccc(Nc2ccc(Nc3ccc(C(C)(C)C)cc3)c3c2C(=O)c2ccccc2C3=O)cc1 [Dye No. 6-21, 1,4-Bis(4-t-butylanilino)] | 8.7 | 1.0 | – | –
16 | CCCCOc1ccc(N(C)c2ccc(N(C)c3ccc(OCCCC)cc3)c3c2C(=O)c2ccccc2C3=O)cc1 [Dye No. 20-12, 1,4-Bis(N--methyl-4-n-butoxyanilino)] | 4.0 | 0.1 | very unstable | –
17 | CCN(c1ccccc1)c1ccc(N(CC)c2ccccc2)c2c1C(=O)c1ccccc1C2=O [Dye No. 17-14, 1,4-Bis(N--ethylanilino)] | 4.5 | 1.0 | very unstable | –
18 | O=C1c2ccccc2C(=O)c2c(NCc3ccccc3)ccc(NCc3ccccc3)c21 [Dye No. 10-19, 1,4-Bis(benzylamino)] | 4.5 | < 0.25 | – | –
19 | CN(c1ccccc1)c1ccc(N(C)c2ccccc2)c2c1C(=O)c1ccccc1C2=O [Dye No. 16-10, 1,4-Bis(N--methylanilino)] | 7.0 | 0.1 | very unstable | –
20 | O=C1c2ccccc2C(=O)c2c(NCCc3ccccc3)ccc(NCCc3ccccc3)c21 [Dye No. 9-8, 1,4-Bis(β-phenethylamino)] | 4.4 | 0.1 | – | –
21 | CCOc1ccc(N(C)c2ccc(N(C)c3ccc(OCC)cc3)c3c2C(=O)c2ccccc2C3=O)cc1 [Dye No. 19-9, 1,4-Bis(N--methyl-4-ethoxyanilino)] | 6.0 | 0.1 | very unstable | –
22 | CCOc1ccc(Nc2ccc(Nc3ccc(OCC)cc3)c3c2C(=O)c2ccccc2C3=O)cc1 [Dye No. 7-3, 1,4-Bis(4-ethoxyanilino)] | 8.5 | < 1.0 | – | –
